# Ends that are not written are not given here.
# Legend:
# [1] = test system: A53T a-syn iPSC-derived dopaminergic neurons; assay: Human iPSC-derived dopaminergic neurons with A53T a-syn mutation; assay type: cell-based; conditions: A53T a-syn iPSC-derived dopaminergic neurons vs isogenic controls
# Procedure: iCell Dopa neurons (A53T a-syn mutant and isogenic control) were purchased from Fujifilm Cellular Dynamics (Madison, WI, USA) and cultured as per manufacturer's instructions. Briefly, cells were plated in complete maintenance medium provided by the manufacturer on poly-L-ornithine/laminin coated plates (ibidi). Cells recovered from thawing for 24 h and then were transduced with AAV-Scramble1.3-RFP or AAV-Pdpep1.3-RFP for 48 h at which time media was completely changed. Cells were fixed using 4% PFA at 7 days post-plating.
# After fixation, cells were permeabilized with 0.2% Triton X-100 for 15 min, washed 3 times with PBS and then incubated with blocking solution (1% BSA, 22.52 mg/mL glycine, 0.1% Tween-20 in PBS) for 1 h. […] Following another 3 PBS washes, nuclei were counterstained with DAPI (ThermoFisher) and then coverslips were mounted on slides using fluorescence mounting medium (DAKO) and sealed using clear nail varnish.
# Confocal images of primary cortical neurons, dopaminergic neurons, and LAMP1 staining within the SN were processed using Imaris software (Oxford instruments). Z stacks were projected to give a 3D reconstruction of the field of view and mean pixel intensity per GFP^+ cell (or RFP^+ cell for V1S/SV2 experiments) was calculated for a-syn or LAMP1 signal using the software's surfaces module. […]
# [2] = test system: HEK293 cells overexpressing A53T a-syn; assay: Cytotoxicity screen of lentiviral 7-mer peptide library, Alpha syn A53T cells under MG132; assay type: cell-based, human
# Excerpt: A screening system to discover candidate peptides to perturb endogenous PPIs based on libraries of short linear interaction motifs that mediate a large fraction (˜30%) of human PPIs (10-12) was recently developed. Here, a lentiviral library of 50,549 7-mer peptide motifs (13) on a green fluorescent protein (GFP) scaffold (FIG. 1A) was used. Cells in a pooled format were infected and the amino acid sequence of each peptide served as its own barcode. By using a low multiplicity of infection followed by puromycin selection, each infected cell expressed one unique GFP-peptide. Peptides that reduced a-syn-mediated cytotoxicity or a-syn oligomers in parallel (FIG. 1A), were screened for.
# To cause cytotoxicity relevant to PD, proteostatic stress in HEK293 cells was induced by inhibiting the proteasome with MG132 and inducing the overexpression of human a-syn (WT) from idiopathic PD in one screen and the more toxic A53T mutant from familial PD in a second screen. The combination of a-syn overexpression and pharmacological proteasome inhibition led to death of most cells, with only those that expressed a protective peptide surviving. By extracting genomic DNA from the surviving cells and amplifying the peptide coding sequences, the protective peptides (FIG. 1A) were identified.
# PCR primers that included the Illumina adaptor sequences were used to amplify peptide coding sequences recovered from selection and cell sorting. Results were demultiplexed, and peptide counts were tallied. After demultiplexing, only reads with an average quality Phred score of >30 were selected, and frequencies were calculated. Finally, the reads were then normalized to the total number of peptides read for that sample population, and a scalar factor was applied. In parallel, ˜25 individual colonies were Sanger sequenced to compare to the NGS data.
# Lentiviruses were made in a 15 cm dish format by transfecting packaging cells (293T) with a three-plasmid system as previously described. Viral transduction of HEK293T cells, tet-off split luciferase a-syn cells, tet-off parent cells, and SH-SY5Y cells were performed with a multiplicity of infection of 0.3 (MOI=0.3). Infected cells were selected in puromycin-containing medium to eliminate uninfected cells and three aliquots of cells were collected for sampling of the initial (TO) cell population. Cells were treated with MG132 at concentrations of 0 μM, 10 μM, 25 μM or 50 μM. For the cell viability screen, surviving cells were collected and gDNA was extracted for identification of peptide inhibitors of cell toxicity. For the inhibition of a-syn aggregation screen, split YFP-a-syn constructs were transfected following stable expression of the peptides. Cells were sorted based on their GFP fluorescence intensities with a FACSVantage SE cell sorter (BD Bioscience).
# Genomic DNA (gDNA) from peptide expressing cells at different time-points was extracted using QIAamp DNA Blood Mini Kit. PCR amplifications of peptides from gDNA in parallel with the lentiviral plasmid library (naïve library) were performed using indexed Illumina PCR primers to incorporate both the Illumina adapter sequences and indexing sequences. Each 50 μl reaction contained 3.2 μg of template, 2×PCR buffer, 2× enhancer solution, 300 μM each dNTP, 900 nM each of Adapter A (5′-[…]-[…]-3′) (SEQ ID NO: 42) and Adapter B (5′-[…]-[…]-3′) (SEQ ID NO: 43), 1 mM MgSO4, 3.75 units of Platinum Pfx polymerase, and water to 50 μl. The PCR reaction was performed by denaturing at 94° C. for 5 minutes, followed by cycling (94° C. for 30 seconds, 65° C. for 30 seconds, 68° C. for 30 seconds)×28 cycles, 68° C. for 5 minutes, then cooling to 4° C. The resulting 244 bp product was purified by electrophoresis in 2% agarose followed by gel extraction. Peptide libraries were quantified using Quant-It assay (Invitrogen) and pooled. […]
Substance,LAMP1 levels [1],a-syn levels [1],Slope Norm Reads [2],"Reads 0 uM MG132 ([2]; normalized Illumina peptide counts, 0 uM MG132)","Reads 10 UM MG132 ([2]; normalized Illumina peptide counts, 10 µM MG132)","Reads 25 UM MG132 ([2]; normalized Illumina peptide counts, 25 µM MG132)","Reads 50 UM MG132 ([2]; normalized Illumina peptide counts, 50 µM MG132)"
DEEIERQLKALG [PDpep1.3],returned both a-syn and LAMP1 levels to those of controls,returned both a-syn and LAMP1 levels to those of controls,–,–,–,–,–
"IPIQLKA [PDpep1, top hit of all screens; maps to CHMP2B residues 203-209]",–,–,40.54,168,20,3859,13308

# Source: patent US20250051391A1, “PEPTIDE INHIBITORS AND METHODS FOR INHIBITING PROTEIN AGGREGATION IN NEURONS AND NEURODEGENERATIVE DISEASES” (THE GOVERNING COUNCIL OF THE UNIVERSITY OF TORONTO, priority 2021, published 2025)
